Data on 28 compounds can be found in PubChem BioAssay (NCI).

What all share (assay): DTP human tumour cell line panel, 48 h
The test system of experiment [1] is OVCAR-8 ovarian.
Experiment [2] concerns 786-0 renal.
The subject of experiment [3] is SNB-19 CNS.
Experiment [4] has as its system UACC-257 melanoma.
In experiment [5] the test system is MDA-MB-231 breast.
The subject of experiment [6] is NCI-H23 lung.
Experiment [7] has as its system SN12C renal.
Experiment [8] has as its system SK-MEL-28 melanoma.
In experiment [9] the test system is UACC-62 melanoma.
For experiment [10], the system named is HCC-2998 colon.

Values joined by “and” are separate entries in the source; they are usually repeats but may differ in a detail not shown here. Equal entries are not always repeated.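 Growth conditions: 96-well plates. Treatment: test compound, 48 hours, 5 concentrations. Analysis: linear interpolation between bracketing concentrations; unreached endpoints set to highest concentration. GI50 marks 50% less growth. At the TGI there is no net growth.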

In the case of `COc1cc(C2SCCCCCCCCCCSC(c3ccc(O)c(OC)c3)SCCCCCCCCCCS2)ccc1O` (stereo unspecified), the TGI in experiment [1], in experiment [2], in experiment [3], in experiment [4], in experiment [5] and in experiment [6] was above 100 µM each time. Moreover, the TGI in experiment [7], in experiment [8] and in experiment [9] was above 100 µM throughout.

Regarding `O=C1CC2C(=O)c3ccccc3CC2c2ccccc21` (stereo unspecified), the TGI in experiment [1] is above 100 µM; in experiment [2] it was above 100 µM; in experiment [3], above 100 µM; in [4], 75.2 µM; in experiment [5], above 100 µM; in experiment [7] it was above 100 µM. Also, the TGI in experiment [8] and in experiment [9] was above 100 µM throughout.

For the compound `COC12CCC(=O)C=C1c1ccccc1N2C(C)=O` (stereo unspecified), the TGI in experiment [1], in experiment [2], in [3], in [4], in experiment [10] and in experiment [6] was above 100 µM throughout. The TGI in [7], in experiment [8] and in experiment [9] was above 100 µM throughout.

For `COc1ccc(NC(=O)CC2SC(=Nc3ccccc3C)NC2=O)c([N+](=O)[O-])c1` (stereo unspecified), the TGI in [1], in experiment [2], in [3], in experiment [4], in [10] and in experiment [6] was above 100 µM each time. Further, the TGI in experiment [7], in experiment [8] and in experiment [9] was above 100 µM each time.

`CCCNC(=O)C1C(=O)C(=O)N(CCC)C1=O` (stereo unspecified): the TGI in [1], in experiment [2], in experiment [3], in [4], in experiment [10] and in experiment [6] was above 100 µM each time. In addition, the TGI in experiment [7], in [8] and in experiment [9] was above 100 µM in each case.

With `CCNC(=O)COc1ccc(Br)cc1Br`, the TGI in experiment [2], in [3], in experiment [4], in experiment [10], in experiment [6] and in [7] was above 100 µM throughout. Besides, the TGI in experiment [8] and in experiment [9] was above 100 µM in each case.

As to `O=c1/c(=C/c2ccccc2[N+](=O)[O-])sc2nc3ccccc3n12`, the TGI in experiment [1] was above 46.4 µM; in experiment [2] it was above 46.4 µM; in experiment [3], above 77.9 µM; in experiment [4], above 46.4 µM; in [10], above 46.4 µM; in experiment [6], above 46.4 µM. In addition, the figures for the TGI in [7], in [8] and in experiment [9] were above 46.4 µM, above 46.4 µM and above 100 µM, respectively.

Turning to `C#Cc1cccc(N2C(=O)c3c(c(-c4ccccc4)c(-c4ccc(Cc5ccc(-c6c(-c7ccccc7)c7c(c(-c8ccccc8)c6-c6ccccc6)C(=O)N(c6cccc(C#C)c6)C7=O)cc5)cc4)c(-c4ccccc4)c3-c3ccccc3)C2=O)c1`, the TGI in experiment [1], in [2], in experiment [3], in [4], in [10] and in [6] was above 100 µM throughout. Moreover, the TGI in experiment [7], in [8] and in [9] was above 100 µM each time.

For the compound `CC1=CC(=O)CC2(C)CC[C@@H]3C[C@]12OC3(C)C` (stereo partly specified), the TGI in [1], in experiment [2], in experiment [3], in [4], in [10] and in experiment [6] was above 100 µM each time. The TGI in [7], in experiment [8] and in experiment [9] was above 100 µM in each case.

`O=C(CCC(=O)Nc1ccc(Cl)c(Cl)c1)CC(=O)c1ccc(Br)cc1`: the TGI in experiment [1], in [2], in experiment [3], in [4], in experiment [6] and in experiment [7] was above 100 µM each time. The TGI in [8] and in [9] was above 100 µM in each case.

`CC1=C[C@H]2c3c([nH]c4ccccc34)C(c3c[nH]c4ccccc34)[C@H]2CC1` (stereo partly specified): the TGI in experiment [1] was 28 µM; in experiment [2], 11.2 µM; in experiment [4], 27.9 µM; in experiment [10], 12.4 µM; in experiment [7], 12.9 µM; in experiment [8], 26 µM. Also, the TGI in [9] was 23.1 µM.

Turning to `N#Cc1ccccc1C(Cl)(Cl)c1cnccn1`, the TGI was 77 µM in experiment [1]; 32.3 µM in [2]; above 100 µM in experiment [3]; above 100 µM in experiment [4]; above 100 µM in [10]; above 100 µM in experiment [6]. For the same compound, the TGI in experiment [7], in experiment [8] and in experiment [9] was above 100 µM throughout.

On to `CC(=O)N/N=C1\CC(C)(C)C2CCC1C2` (stereo unspecified), for which the TGI in [1], in experiment [2], in experiment [3], in [4], in experiment [6] and in [7] was above 100 µM each time. The TGI in experiment [8] and in [9] was above 100 µM in each case.

Consider `COC/C=C\COC`, for which the concentration for total growth inhibition (TGI) in experiment [1], in experiment [2], in experiment [3], in experiment [4], in [10] and in [7] was above 100 µM each time. Also, the TGI in experiment [8] and in experiment [9] was above 100 µM in each case.

For the compound `N/N=C1\C(=O)N(C2CCCCCC2)C(=O)C1C(=O)NC1CCCCCC1` (stereo unspecified), the TGI was above 100 µM in experiment [1]; above 100 µM in experiment [2]; above 100 µM in experiment [3]; above 100 µM in [4]; 43.9 µM in experiment [10]; 52.1 µM in experiment [6]. The values for the TGI in experiment [7], in experiment [8] and in [9] were 65.6 µM, above 10 µM and 41.6 µM, respectively.

Consider `COc1ccc(S(=O)(=O)N2CCN(C(=O)c3ccc(-c4ccccc4)cc3)CC2C(=O)NO)cc1` (stereo unspecified), for which the TGI in experiment [1] was 12.5 µM and > 100 µM; in [2], 12.4 µM and > 100 µM; in [3], 12.5 µM and > 100 µM; in experiment [4], 12.5 µM and > 100 µM; in experiment [6] it was 12.5 µM and > 100 µM; in experiment [8], 12.5 µM and > 100 µM. The concentration for total growth inhibition (TGI) in experiment [9] was 12.5 µM and > 100 µM. The GI50 in experiment [7] is 2.16 µM and 16.2 µM.

For `COc1ccc(NC(=O)CSC2=C(Nc3cccc(Br)c3)C(=O)N(Cc3ccccc3)C2=O)cc1Cl`, the GI50 in experiment [1], in [2], in [3], in experiment [4], in experiment [5] and in experiment [7] was above 100 µM throughout. Moreover, the GI50 is above 100 µM in [8] and 46.2 µM in experiment [9]. Besides, the TGI in [1], in [2], in experiment [3], in experiment [4], in experiment [5] and in experiment [7] was above 100 µM each time. The TGI in experiment [8] and in [9] was above 100 µM in each case.

On to `CC(Oc1ccc2c(-c3ccccc3)cc(=O)oc2c1)C(=O)O` (stereo unspecified), for which the TGI in experiment [1], in [2], in [3], in experiment [4], in experiment [10] and in experiment [6] was above 100 µM in each case. Moreover, the TGI in experiment [7], in experiment [8] and in [9] was above 100 µM each time.

With `CCC(=O)c1c(NOC2OCC(OC(C)=O)C(OC(C)=O)C2OC(C)=O)nc(OC)n(C)c1=O` (stereo unspecified), the TGI in experiment [1], in experiment [2], in experiment [3], in [4], in experiment [10] and in experiment [6] was above 100 µM in each case. Moreover, the TGI in [7], in [8] and in [9] was above 100 µM each time.

In the case of `COc1ccc(NC(=O)/C(=C/c2ccccc2)C(C)=O)cc1`, the TGI was 51.5 µM in experiment [1]; 28.6 µM in experiment [2]; 33.4 µM in [3]; 29.3 µM in experiment [4]; 33.5 µM in experiment [10]; 31.4 µM in experiment [7]. Also, the TGI in [8] stood at 26.1 µM; in [9], 22.3 µM.

As for `CCC1CC2C(=O)N(c3ccccc3)C(=O)C2c2[nH]c3ccccc3c21` (stereo unspecified), the TGI is 35.2 µM in experiment [1]; 47.6 µM in experiment [2]; 75.1 µM in [3]; above 100 µM in experiment [10]; above 100 µM in [6]; 71.1 µM in experiment [7]. The concentration for total growth inhibition (TGI) in [8] and in experiment [9] was above 100 µM throughout.

With `O=C1c2ccccc2-[n+]2ccc3c([nH]c4ccccc43)c21`, the TGI in experiment [1] was above 100 µM; in experiment [2] it was 2.58 µM; in [3], 2.27 µM; in experiment [4], 1.88 µM; in experiment [10], 0.484 µM; in experiment [6], 2.76 µM. The TGI in [7] was 0.687 µM; in experiment [8], 1.16 µM; in experiment [9] it was 0.699 µM.

In the case of `CC1/C=C/[C@@]2(C)CCC(C(C)(C)O)C2C(O)C[C@](C)(O)/C=C/C1` (stereo partly specified), the TGI in experiment [1], in experiment [2], in [3], in experiment [4], in experiment [10] and in [6] was above 100 µM each time. Also, the TGI in [7], in experiment [8] and in experiment [9] was above 100 µM throughout.

`COc1ccc(OC)c(NC(=O)CCC/C(CC(=O)c2ccc(O)c(OC)c2)=N\Nc2nnc(C)n2N)c1`: the TGI in experiment [1], in [2], in experiment [3], in experiment [4], in experiment [10] and in experiment [6] was above 100 µM each time. Further, the TGI in experiment [7], in [8] and in experiment [9] was above 100 µM throughout.

Regarding `CC(C)(C)c1cc(C(O)(C(F)(F)F)C(F)(F)F)c2c(c1)C(C(F)(F)F)(C(F)(F)F)OC(C)(C(C)(C)C)N2` (stereo unspecified), the TGI is 11.6 µM in experiment [2]; above 100 µM in experiment [3]; 27.4 µM in [4]; 93.6 µM in [10]; 7.41 µM in [6]; 16.8 µM in experiment [7]. Further, the TGI stood at 28.6 µM in [8] and 15 µM in [9].

Regarding `Cc1ccccc1NC(=O)c1cc(-c2ccc([N+](=O)[O-])cc2)nc(=S)[nH]1`, the TGI in experiment [1], in experiment [2], in experiment [3], in experiment [4], in experiment [10] and in experiment [6] was above 100 µM each time. The TGI in [7], in [8] and in [9] was above 100 µM throughout.

As to `Cc1ccc(NC(=O)CCc2nc(N)nc(N)c2-c2ccccc2)cc1C`, the TGI in experiment [1], in experiment [2], in experiment [3], in experiment [4], in [10] and in experiment [6] was above 100 µM each time. In addition, the TGI in experiment [7], in experiment [8] and in experiment [9] was above 100 µM each time.

Consider `C=C(CC(NC(=O)c1ccc(C(CC)Cc2cnc3nc(N)nc(N)c3n2)cc1)C(=O)O)C(=O)O` (stereo unspecified), for which the TGI in [1] is above 100 µM; in experiment [2], 5.17 µM; in experiment [3] it was above 100 µM; in [4], above 100 µM; in experiment [6], above 100 µM; in experiment [7], above 100 µM. The TGI in [8] and in experiment [9] was above 100 µM in each case. Moreover, the GI50 was 0.0257 µM in experiment [2], 0.0599 µM in experiment [4], 0.0265 µM in [10] and 0.0205 µM in experiment [7].

The term TGI denotes the concentration at which net growth stops. The GI50 is the concentration at which growth is held to half of that of the control.
